Source: ChEMBL document CHEMBL1133780, “Synthesis and antiparasitic activity of 2-(trifluoromethyl)-benzimidazole derivatives” (Bioorg Med Chem Lett, 2001)

Assays:
Giardia intestinalis = test: In vitro antiprotozoal activity against Giardia lamblia; format: functional, organism-based; details: Giardia duodenalis
Entamoeba histolytica = test: In vitro antiprotozoal activity against Entamoeba histolytica; format: functional, organism-based
Trichinella spiralis [1] = test: Percent reduction of viability of Trichinella spiralis muscle larvae at a concentration of 3*10e-4 uM; format: functional
Rattus norvegicus [2] = species on record: Rattus norvegicus; test: Tested for inhibition of tubulin polymerization in rat brain at a concentration of 3*10e-3 uM; format: functional
Rattus norvegicus [3] = species on record: Rattus norvegicus; test: Tested for inhibition of tubulin polymerization in rat brain at a concentration of 0.015 uM; format: functional
Rattus norvegicus [4] = species on record: Rattus norvegicus; test: Tested for inhibition of tubulin polymerization in rat brain at a concentration of 3*10e-5 uM; format: functional
Trichinella spiralis [5] = test: Percent reduction of viability of Trichinella spiralis muscle larvae at a concentration of 3*10e-5 uM; format: functional
Rattus norvegicus [6] = species on record: Rattus norvegicus; test: Tested for inhibition of tubulin polymerization in rat brain at a concentration of 0.024 uM; format: functional
Trichinella spiralis [7] = test: Percent reduction of viability of Trichinella spiralis muscle larvae at a concentration of 3*10e-6 uM; No reduction observed; format: functional, organism-based
Trichinella spiralis [8] = test: Percent reduction of viability of Trichinella spiralis muscle larvae at a concentration of 3*10e-3 uM; format: functional
Trichinella spiralis [9] = test: Percent reduction of viability of Trichinella spiralis muscle larvae at a concentration of 3*10e-3 uM; No reduction observed; format: functional, organism-based
Trichinella spiralis [10] = test: Percent reduction of viability of Trichinella spiralis muscle larvae at a concentration of 3*10e-4 uM; No reduction observed; format: functional, organism-based
Trichinella spiralis [11] = test: Percent reduction of viability of Trichinella spiralis muscle larvae at a concentration of 3*10e-5 uM; No reduction observed; format: functional, organism-based
Trichinella spiralis [12] = test: Percent reduction of viability of Trichinella spiralis muscle larvae at a concentration of 3*10e-6 uM; format: functional

Compound | IC50 (Giardia intestinalis) [nM] | IC50 (Entamoeba histolytica) [nM] | Reduction (Trichinella spiralis [1]) [%] | Viscosity (Rattus norvegicus [2]) | Viscosity (Rattus norvegicus [3]) | Viscosity (Rattus norvegicus [4]) | Reduction (Trichinella spiralis [5]) [%] | Viscosity (Rattus norvegicus [6]) | Reduction (Trichinella spiralis [7]) | Reduction (Trichinella spiralis [8]) [%] | Reduction (Trichinella spiralis [9]) | Reduction (Trichinella spiralis [10]) | Reduction (Trichinella spiralis [11]) | Reduction (Trichinella spiralis [12]) [%]
Cc1ncc([N+](=O)[O-])n1CCO [METRONIDAZOLE] | 1220 | 350 | – | – | – | – | – | – | – | – | – | – | – | –
Cn1c(C(F)(F)F)nc2ccc(Cl)cc21 | 127 | 8 | – | 7.39 | 7.07 | 6.44 | – | 7.26 | No reduction | – | No reduction | No reduction | No reduction | –
CCCSc1ccc2[nH]c(NC(=O)OC)nc2c1 [ALBENDAZOLE] | 37 | 56300 | 20 | 2.07 | – | 7.04 | 13 | – | – | 30 | – | – | – | 6
Cn1c(C(F)(F)F)nc2cc(Cl)ccc21 | 42 | 46 | 16 | 7.58 | 6.94 | 7.3 | 9 | 7.54 | – | 39 | – | – | – | 2
Cn1c(C(F)(F)F)nc2ccccc21 | 64 | 40 | 9 | 7.41 | 7.31 | 6.68 | 1 | 7.16 | No reduction | 12 | – | – | – | –

The next lines start with results.

IC50 (Giardia intestinalis) [nM] | IC50 (Entamoeba histolytica) [nM] | Compound | Reduction (Trichinella spiralis [1]) [%] | Viscosity (Rattus norvegicus [2]) | Viscosity (Rattus norvegicus [3]) | Viscosity (Rattus norvegicus [4]) | Reduction (Trichinella spiralis [5]) [%] | Viscosity (Rattus norvegicus [6]) | Reduction (Trichinella spiralis [7]) | Reduction (Trichinella spiralis [8]) [%] | Reduction (Trichinella spiralis [9]) | Reduction (Trichinella spiralis [10]) | Reduction (Trichinella spiralis [11]) | Reduction (Trichinella spiralis [12]) [%]
107 | 69 | FC(F)(F)c1nc2ccccc2[nH]1 | 3 | 7.56 | 7.34 | 7.55 | 1 | 6.92 | No reduction | 9 | – | – | – | –
260 | 33 | Cn1c(C(F)(F)F)nc2cc(Cl)c(Cl)cc21 | 9 | 7.63 | 6.63 | 6.93 | 4 | 6.94 | – | 15 | – | – | – | 2
1280 | 22 | FC(F)(F)c1nc2cc(Cl)ccc2[nH]1 | – | 6.7 | 7.14 | 6.59 | – | 6.47 | No reduction | – | No reduction | No reduction | No reduction | –
78 | 11 | FC(F)(F)c1nc2cc(Cl)c(Cl)cc2[nH]1 | 9 | 7.03 | 6.68 | 7 | 1 | 7.22 | No reduction | 19 | – | – | – | –
